Test results as given in ChEMBL document CHEMBL3751749, “Identification of new hit scaffolds by [sequence]-guided virtual screening” (Medchemcomm, 2015).
The source made the active and inactive calls. No cut-off for these calls is given here.

Assays:
[1] = target: T1, Cyclin-dependent kinase 2 (Homo sapiens, UniProt P24941); experiment: Binding affinity to N-terminal His-tagged human CDK2 expressed in Escherichia coli BL21-AI by STD-NMR analysis
Homo sapiens [2] = species: Homo sapiens; experiment: Inhibition of human PKA assessed as enzyme activity using PKA peptide as substrate at 5 uM incubated for 120 mins in presence of 33-P ATP by kinase phosphorylation assay; parameters: scale not given: the % may be the effect or the level left
CDK2/Cyclin A2 = CDK2/Cyclin A2 (Homo sapiens, UniProt P24941); experiment: Inhibition of recombinant full-length human Cdk2/cyclin A using histone H1 as substrate incubated for 120 mins in presence of 33-P ATP by kinase phosphorylation assay; format: protein-complex assay
[3] = target: T2, Cyclin-dependent kinase 2/cyclin E1 (Homo sapiens) (UniProt P24864+P24941); experiment: Inhibition of recombinant full-length human Cdk2/cyclin E assessed as enzyme activity using histone H1 as substrate at 5 uM incubated for 120 mins in presence of 33-P ATP by kinase phosphorylation assay; format: protein-complex assay; parameters: scale not given: the % may be the effect or the level left
[4] = target: T3, CDK2/Cyclin A2 (Homo sapiens) (UniProt P24941+P20248); experiment: Inhibition of recombinant full-length human Cdk2/cyclin A assessed as enzyme activity using histone H1 as substrate at 5 uM incubated for 120 mins in presence of 33-P ATP by kinase phosphorylation assay; format: protein-complex assay; parameters: scale not given: the % may be the effect or the level left
[5] = target: ALK tyrosine kinase receptor (Homo sapiens) (UniProt Q9UM73); experiment: Inhibition of human ALK assessed as enzyme activity using pEY as substrate at 5 uM incubated for 120 mins in presence of 33-P ATP by kinase phosphorylation assay; parameters: scale not given: the % may be the effect or the level left
Chain of ALK tyrosine kinase receptor (Homo sapiens) (Q9UM73 19-1620 limits assumed): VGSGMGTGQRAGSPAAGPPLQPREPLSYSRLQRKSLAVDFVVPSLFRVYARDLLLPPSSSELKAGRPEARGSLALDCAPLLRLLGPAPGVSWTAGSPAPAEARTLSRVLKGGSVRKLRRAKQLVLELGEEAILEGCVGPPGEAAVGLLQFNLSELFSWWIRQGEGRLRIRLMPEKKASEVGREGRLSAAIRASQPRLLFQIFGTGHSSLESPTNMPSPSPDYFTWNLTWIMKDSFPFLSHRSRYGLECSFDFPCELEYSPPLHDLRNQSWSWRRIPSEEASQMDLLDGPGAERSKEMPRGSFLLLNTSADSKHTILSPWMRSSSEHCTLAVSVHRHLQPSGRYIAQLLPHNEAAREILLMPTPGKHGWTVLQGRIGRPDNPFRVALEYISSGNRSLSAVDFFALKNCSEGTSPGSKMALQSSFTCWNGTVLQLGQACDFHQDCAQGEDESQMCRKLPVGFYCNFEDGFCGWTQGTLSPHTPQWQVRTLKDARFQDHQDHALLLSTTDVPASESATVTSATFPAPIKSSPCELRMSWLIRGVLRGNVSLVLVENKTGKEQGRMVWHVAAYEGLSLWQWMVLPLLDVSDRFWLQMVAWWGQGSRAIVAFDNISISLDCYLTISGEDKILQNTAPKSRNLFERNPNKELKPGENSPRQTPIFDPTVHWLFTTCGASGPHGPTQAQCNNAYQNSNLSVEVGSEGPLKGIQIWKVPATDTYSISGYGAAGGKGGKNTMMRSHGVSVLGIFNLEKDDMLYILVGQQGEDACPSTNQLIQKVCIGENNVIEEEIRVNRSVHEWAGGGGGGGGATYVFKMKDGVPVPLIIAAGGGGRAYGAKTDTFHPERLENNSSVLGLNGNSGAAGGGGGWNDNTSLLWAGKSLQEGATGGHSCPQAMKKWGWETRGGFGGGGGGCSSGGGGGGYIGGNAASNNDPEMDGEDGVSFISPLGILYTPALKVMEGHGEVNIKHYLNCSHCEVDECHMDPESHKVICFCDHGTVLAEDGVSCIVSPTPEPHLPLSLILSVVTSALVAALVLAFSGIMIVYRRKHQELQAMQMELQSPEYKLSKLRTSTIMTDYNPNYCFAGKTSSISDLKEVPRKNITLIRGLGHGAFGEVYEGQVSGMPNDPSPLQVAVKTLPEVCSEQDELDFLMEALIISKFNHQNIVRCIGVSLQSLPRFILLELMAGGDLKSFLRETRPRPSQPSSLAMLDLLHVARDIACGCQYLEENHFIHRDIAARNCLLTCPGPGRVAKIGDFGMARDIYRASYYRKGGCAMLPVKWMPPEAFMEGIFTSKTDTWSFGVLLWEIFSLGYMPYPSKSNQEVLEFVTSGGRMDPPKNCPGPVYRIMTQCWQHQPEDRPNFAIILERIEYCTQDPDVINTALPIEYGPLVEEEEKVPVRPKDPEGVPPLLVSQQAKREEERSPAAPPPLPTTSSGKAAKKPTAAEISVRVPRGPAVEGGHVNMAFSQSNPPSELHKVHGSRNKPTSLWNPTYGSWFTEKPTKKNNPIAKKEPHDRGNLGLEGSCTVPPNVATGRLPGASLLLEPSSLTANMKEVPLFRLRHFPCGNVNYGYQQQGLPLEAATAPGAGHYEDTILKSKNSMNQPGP

[6] = target: T1, Cyclin-dependent kinase 2; experiment: Binding affinity to human CDK2 by isothermal titration calorimetric analysis
Homo sapiens [7] = species: Homo sapiens; experiment: Inhibition of human PKA assessed as enzyme activity using PKA peptide as substrate at 100 uM incubated for 120 mins in presence of 33-P ATP by kinase phosphorylation assay; parameters: scale not given: the % may be the effect or the level left
[8] = target: T3, CDK2/Cyclin A2 (Homo sapiens); experiment: Inhibition of recombinant full-length human Cdk2/cyclin A assessed as enzyme activity using histone H1 as substrate at 100 uM incubated for 120 mins in presence of 33-P ATP by kinase phosphorylation assay; format: protein-complex assay; parameters: scale not given: the % may be the effect or the level left
[9] = target: T2, Cyclin-dependent kinase 2/cyclin E1 (Homo sapiens); experiment: Inhibition of recombinant full-length human Cdk2/cyclin E assessed as enzyme activity using histone H1 as substrate at 100 uM incubated for 120 mins in presence of 33-P ATP by kinase phosphorylation assay; format: protein-complex assay; parameters: scale not given: the % may be the effect or the level left

Row | SMILES | Activity [1] | Kd [6] [µM] | further results
1 | Cc1ccc(Cn2cc(-n3c(-c4ccc(Cn5cc(Cl)cn5)cc4)n[nH]c3=S)cn2)cc1 | inactive |  | 
2 | O=S(=O)(c1cccc2cnccc12)N1CCCNCC1 | Active |  | 
3 | Cc1nc2[nH]n(-c3ccccc3)c(=O)c2c2c1c(=O)oc1ccc(Br)cc12 |  |  | Activity (Homo sapiens [2]): 115%; IC50 (CDK2/Cyclin A2): 2.6 µM; Activity [3]: 95%; Activity [4]: 35%; Activity [5]: 87%
4 | Cc1ccc(Cn2cc(-n3c(-c4ccc(Cn5cccn5)cc4)n[nH]c3=S)cn2)cc1 | inactive |  | 
5 | Cc1ccc(Cn2cc(-n3c(-c4ccc(Cn5nc(C)c(Cl)c5C)o4)n[nH]c3=S)cn2)cc1 | inactive |  | 
6 | N=C(N)NCCNS(=O)(=O)c1cccc2cnccc12 | Active | 286 | 
7 | Cc1ccc(Cn2cc(-n3c(-c4ccc(Cn5nc(C)cc5C)o4)n[nH]c3=S)cn2)cc1 | inactive |  | 
8 | c1ccc(CNc2ncnc3nc[nH]c23)cc1 [6-BENZYLAMINOPURINE] |  | 62 | 
9 | CC(C)=CCNc1ncnc2[nH]cnc12 | Active |  | 
10 | Cc1ccc(Cn2nccc2-n2c(-c3cc(C)n(C)n3)n[nH]c2=S)cc1 | Active |  | Activity (Homo sapiens [7]): 99%; IC50 (CDK2/Cyclin A2): 1000 µM; Activity [8]: 69%; Activity [9]: 96%
11 | c1ccc(CNc2ncnc3[nH]cnc23)cc1 | Active |  | 
12 | Nc1ncnc2c1ncn2[C@@H]1O[C@H](CO)[C@@H](O)[C@H]1O [ADENOSINE] |  | 184 | 
13 | CC(C)=CCNc1ncnc2nc[nH]c12 |  | 35 | 
14 | CNc1ncnc2ccc([N+](=O)[O-])cc12 | Active | 208 | 
